Measured values: patent US6200966A, “Compositions for inhibiting airway wall inflammation” (Amrad Operations Pty. Ltd., priority 1996, dated 2001)
“Also recorded” adds a separate entry of the source.

How the values were obtained:
[1] = test system: human cultured airway smooth muscle cells; test: Protein synthesis: [3H]-leucine incorporation; format: cell-based; conditions: Table 5, unstimulated cells, mean
[2] = test system: human cultured airway smooth muscle cells; test: DNA synthesis: [3H]-thymidine incorporation; format: cell-based
Procedure: (§1) Human bronchial airway smooth muscle was obtained from macroscopically normal lung resection specimens from lung transplant donors or recipients provided by the Alfred Hospital (Melbourne). Cultures were prepared as previously described in detail (Tomlinson et al., 1994). Briefly, the tissue was partially digested in Dulbecco's Modified Eagle's Medium (DMEM), [supplemented with 2 mM L-glutamine, 100 μg/ml streptomycin, 100 U/ml penicillin-G, 2 μg/ml amphotericin B, and 0.25% w/v bovine serum albumin (BSA)] containing 3 mg/ml collagenase for 30 minutes at 37° C. and approximately 0.5 g smooth muscle was further digested by a 2 hour incubation in 0.5 mg/ml elastase, followed by an 18 hour incubation in collagenase (3 mg/ml) at 37° C. Cell suspensions ere centrifuged (10 min, 100×g, 25° C.), washed three times in supplemented DMEM, resuspended in 25 ml DMEM containing 10% (v/v) heat-inactivated foetal calf serum (FCS), seeded into 25 cm^2 Falcon culture flasks and incubated (37° C., 5% CO2) for 7 to 10 days until monolayer confluence was reached. Cells were then harvested weekly by 10 min exposure to 0.5% trypsin, 1 mM EDTA and passaged at a 1:3 split ratio into 75 cm^2 Falcon culture flaskes. Cells at passage numbers 3 to 15 were used for experiments.
(§2) Cells were subcultured into 24-well plates at a 1:3 ratio and allowed to grow to monolayer confluency over a 72-96 hour period in an atmosphere of 5% CO2 in air at 37° C. The serum-containing medium was replaced with serum-free DMEM for a 24 hour period to produce growth arrest. In some experiments, the cells were pretreated with 2-methoxyestradiol 30 min before the addition of mitogen. The stimulant (mitogen) was added to the appropriate wells together with a supplement containing insulin, transferrin, and selenium (Monomed A, 1% v/v). Monomed A was added to provide progression factors which are essential for the mitogenic activity of growth factors such as thrombin, epidermal growth factor (EGF) and basic fibroblast growth factor (bFGF) (Stewart et al., 1995a). Mitogens and inhibitors were left in contact with cells from the time of addition until the end of the experiment, unless indicated otherwise. Cells were incubated for 24 hours (37° C., 5% CO2) before being pulsed with [^3 H]-thymidine (1 μCi/ml for four hours) to measure incorporation of radiolabel into newly synthesized DNA, according to out previous study (Stewart et al., 1995). Incorporation of radioactivity was determined by filtration at the end of the pulse-labelling period. The medium containing the radioactivity was aspirated and the cells were lysed by addition of 200 μl of 0.1M NaOH. The DNA was immobilised by filtration in a binding harvester (Packard Filtermate 196) on glass fibre filters (Packard, standard), which were then washed with 3×3 ml volumes of distilled water and a single 1 ml volume of 100% ethanol. The dried filters were counted in a Packard Topcount liquid scintillation counter. Protein synthesis rates were determined in experiments of analogous design to those described above, but [^3 H]-leucine replaced [^3 H]-thymidine in the pulsing incubation of 4 hours. Furthermore, in experiments to determine the effects of mitogens and 2-methoxyestradiol on the rate of protein synthesis, incubations with mitogen were carried out for a period of 48 hours. The longer duration of these experiments was required to allow sufficient time for cell division to occur.
(§3) Each treatment in an individual experiment was carried out in quadruplicate for DNA and protein synthesis experiments. Each experiment was performed in at least three different cultures obtained from three different individuals. For cell counting, single incubations were carried out in three cultures. Results are presented as grouped data from multiple cultures and are expressed as mean ±S. E. of n cultures. The degree of increment was calculated by dividing the response of treated wells by that of the control wells on the same 24-well plate.

[3] = test system: human cultured airway smooth muscle cells; test: Protein synthesis: [3H]-leucine incorporation; format: cell-based; conditions: for [3H]-leucine incorporation: Table 5, unstimulated cells, mean
Procedure: as §1, §2, §3

[4] = test system: cultured airway smooth muscle; conditions: cited from earlier work; for mitogenic activity on airway smooth muscle: various species
[5] = test system: endothelial cells and fibroblasts; conditions: actively proliferating or non-quiescent; cited from earlier work
[6] = test system: airway smooth muscle cells; test: Morphological changes (cell rounding); format: cell-based, human

## C[C@]12CC[C@@H]3c4ccc(O)cc4CC[C@H]3[C@@H]1CC[C@@H]2O [17β-estradiol, 1,3,5[10]-estratriene-3, 17β-diol, reference compound]
[1]; concentration 1.0
  [3H]-leucine incorporation: 89 % control
[1]; concentration 10.0
  [3H]-leucine incorporation: 100 % control
[2]; FCS 1%, 10 μM
  FCS (1%)-stimulated DNA synthesis, 10 μM: inhibition was observed at 10 μM
[2]; FCS 1%
  DNA synthesis in response to FCS (1%), 3 and 10 μM: inhibited DNA synthesis
  FCS (1%)-stimulated DNA synthesis, lower concentrations: enhanced; also recorded: increased DNA synthesis
[3]; concentration 0.3
  [3H]-leucine incorporation: 103 % control
[3]; concentration 3.0
  [3H]-leucine incorporation: 87 % control

## bFGF: human recombinant basic FGF
[2]; 300 pM bFGF, fold series
  DNA synthesis ([3H]-thymidine incorporation) over unstimulated: 22.5±5.3
[4]
  mitogenic activity on airway smooth muscle: most effective proliferative agents

## EGF: epidermal growth factor
[2]; 3 nM EGF, fold series
  DNA synthesis ([3H]-thymidine incorporation) over unstimulated: 4.5±0.7
[4]
  mitogenic activity on airway smooth muscle: most effective proliferative agents

## NCCc1c[nH]c2ccc(O)cc12 [5HT, Serotonin, reference compound]
[2]; 5HT 0.1 nM up to 10 μM
  incorporation of [3H]-thymidine by serotonin: no effect
[3]; 5HT 10 nM
  incorporation of [3H]-leucine by serotonin: increased incorporation of [^3 H]-leucine

## endothelin-1
[4]
  mitogenic activity on airway smooth muscle: only weakly active

## NCCc1c[nH]cn1 [histamine]
[4]
  mitogenic activity on airway smooth muscle: completely inactive

## C[C@]12CC[C@@H]3c4cc(O)c(O)cc4CC[C@H]3[C@@H]1CC[C@@H]2O [2-hydroxyestradiol, 1,3,5[10]-estratriene-2,3,17β-triol]
[1]; concentration 10.0
  [3H]-leucine incorporation: 51 % control
[2]; FCS 1%
  DNA synthesis in response to FCS (1%), 3 and 10 μM: inhibited DNA synthesis
  FCS (1%)-stimulated DNA synthesis, lower concentrations: increased DNA synthesis
[3]; concentration 0.3
  [3H]-leucine incorporation: 107 % control
[3]; concentration 1.0
  [3H]-leucine incorporation: 94 % control
[3]; concentration 3.0
  [3H]-leucine incorporation: 56 % control

## CCCCC[C@H](O)/C=C/[C@@H]1[C@@H](C/C=C\CCCC(=O)O)[C@H]2CO[C@@H]1C2 [U46619]
[4]
  mitogenic activity on airway smooth muscle: only weakly active

## heparin [reference compound]
[5]
  proliferation of endothelial cells and fibroblasts: enhance endothelial cell proliferation
[4]
  effect on proliferation of cultured airway smooth muscle: inhibit proliferation of airway smooth muscle cells

## COc1cc2c(cc1O)CC[C@@H]1[C@@H]2CC[C@]2(C)C(=O)CC[C@@H]12 [2-methoxyestrone]
[2]; thrombin
  concentration-response of enhancement of thrombin-stimulated DNA synthesis: bell-shaped concentration-response curve
[2]; thrombin 0.3 U/ml, 10 μM
  enhancement of thrombin-stimulated DNA synthesis, 10 μM: level of enhancement declined at 10 μM
[2]; thrombin 0.3 U/ml, up to 3 μM
  thrombin-stimulated DNA synthesis (analogues): enhanced thrombin-stimulated DNA synthesis

## CC#C[C@]1(O)CC[C@H]2[C@@H]3CCC4=CC(=O)CCC4=C3[C@@H](c3ccc(N(C)C)cc3)C[C@@]21C [RU 486, reference compound]
[6]; RU 486 as antagonist
  shape changes in response to colchicine or 2-methoxyestradiol: reduced the shape changes
[2]; RU 486 (1 μM), 2-methoxyestradiol 3 μM, FCS 1%
  effect on inhibition of DNA synthesis by 2-methoxyestradiol: no effect

## C[C@@H]1C[C@H]2[C@@H]3CCC4=CC(=O)C=C[C@]4(C)[C@@]3(F)[C@@H](O)C[C@]2(C)[C@@]1(O)C(=O)CO [dexamethasone]
[4]
  effect on proliferation of cultured airway smooth muscle: anti-proliferative effect

## thrombin: thrombin (bovine plasma), mitogen
[2]; 0.3 U/ml thrombin
  DNA synthesis ([3H]-thymidine incorporation) over unstimulated: 8.4±3.1 fold
[4]
  mitogenic activity on airway smooth muscle: effective growth factor

## COc1cc2c(c(OC)c1OC)-c1ccc(OC)c(=O)cc1[C@@H](NC(C)=O)CC2 [colchicine, reference compound]
[6]; colchicine 0.1-10 μM
  shape changes: similar
